Experimental data taken from US6770147B2, “METHOD FOR THE PRODUCTION OF SUGAR OR SUGAR-CONTAINING PRODUCTS FROM SUGAR-CONTAINING VEGETABLE RAW MATERIALS, SUGAR AND SUGAR-CONTAINING PRODUCTS MADE BY THE METHOD, AND EXTRACTION SOLUTION FOR USE IN THE METHOD” (Zuckerforschung Tulln Gesellschaft m.b.H., priority 2000, dated 2004).

Columns and labels:
[1] = system: osmotolerant microorganisms; assay: pH drop of syrup with 60% dry substances during storage at 22° C.; type: cell-based; conditions: 350 ppm
Description: A further pH drop is to be avoided or at least delayed by the addition of an agent. The juice is supplemented with rosin acids at a concentration of 200 ppm in the form of a 20% sodium salt solution.

[2] = system: thermophilic bacteria; assay: pH drop (acid formation) of thermophilic bacteria culture: liquid nutrient medium inoculated with crude juice, 65° C.; type: cell-based, thermophilic bacteria from sugar beet crude juice; conditions: Example 9; for pH / ΔpH/h: 0.2 ml solution each added at pH 6.30, 6.28, 6.26, 6.24
Procedure: A liquid nutrient medium as used in microbiology and including 10 g bactopepton, 5 g meat extract, 5 g yeast extract, 1 g glucose, 1 g K2HPO4, 0.3 g KNO3, 0.1 g MgSO4*7H2O and 0.01 g FeSO4*7H2O per liter distilled water, is sterilized in the usual manner for 20 minutes at 120° C. and inoculated with 20 ml crude juice from large-scale sugar beet extraction in a 500 ml vessel heated at 65° C., with the pH being recorded on a recorder. […]
A liquid nutrient medium as used in Example 1 is inoculated with 40 ml crude juice from a sugar factory per liter, stirred at 65° C. and the pH drop is followed. A solution of 15 mg pure neoabietic acid (99%) per 1.5 ml ethanol is prepared.

Q: With C=O [HCHO, formaldehyde] as the compound, how does the ph drop ([1]; Observation time 0 days) read?
A: 0

Q: What about the ph value ([1]; Observation time 0 days) of the same compound?
A: 8.44

Q: What about the ph drop ([1]; Observation time 1 days) of the same compound?
A: 0.39

Q: And the ph value ([1]; Observation time 1 days)?
A: 8.05

Q: And the ph drop ([1]; Observation time 2 days)?
A: 0.48

Q: What about the ph value ([1]; Observation time 2 days) of the same compound?
A: 7.96

Q: And the ph drop ([1]; Observation time 5 days)?
A: 0.67

Q: What about the ph value ([1]; Observation time 5 days) of the same compound?
A: 7.77

Q: How did the “concentration at which the pH drop is stopped” value ([2]; ethanol solution, four additions of 0.2 ml, 40 ml crude juice per liter, 65° C.) turn out when CC(C)=C1C=C2CCC3C(C)(C(=O)O)CCCC3(C)C2CC1 (stereo not drawn) [neoabietic acid] was run?
A: 8 mg per liter

Q: What about the pH ([2]; Time 0 h) of the same compound?
A: 6.90

Q: And the pH ([2]; Time 1 h)?
A: 6.90

Q: And the ΔpH/h ([2]; Time 1 h)?
A: 0.00 pH/h

Q: What about the pH ([2]; Time 2 h) of the same compound?
A: 6.89

Q: And the ΔpH/h ([2]; Time 2 h)?
A: 0.01 pH/h

Q: What about the pH ([2]; Time 3 h) of the same compound?
A: 6.87

Q: What about the ΔpH/h ([2]; Time 3 h) of the same compound?
A: 0.02 pH/h

Q: And the pH ([2]; Time 3.5 h)?
A: 6.86

Q: And the ΔpH/h ([2]; Time 3.5 h)?
A: 0.02 pH/h

Q: And the pH ([2]; Time 4 h)?
A: 6.85

Q: What about the ΔpH/h ([2]; Time 4 h) of the same compound?
A: 0.02 pH/h

Q: What about the pH ([2]; Time 4.5 h) of the same compound?
A: 6.82

Q: And the ΔpH/h ([2]; Time 4.5 h)?
A: 0.06 pH/h

Q: What about the pH ([2]; Time 5 h) of the same compound?
A: 6.72

Q: And the ΔpH/h ([2]; Time 5 h)?
A: 0.20 pH/h

Q: What about the pH ([2]; Time 5.5 h) of the same compound?
A: 6.54

Q: What about the ΔpH/h ([2]; Time 5.5 h) of the same compound?
A: 0.36 pH/h

Q: And the pH ([2]; Time 5.8 h)?
A: 6.30

Q: And the ΔpH/h ([2]; Time 5.8 h)?
A: 0.80 pH/h

Q: What about the pH ([2]; Time 6 h) of the same compound?
A: 6.24

Q: And the ΔpH/h ([2]; Time 6 h)?
A: 0.30 pH/h

Q: And the pH ([2]; Time 6.5 h)?
A: 6.24

Q: What about the ΔpH/h ([2]; Time 6.5 h) of the same compound?
A: 0.00 pH/h

Q: What about the pH ([2]; Time 7 h) of the same compound?
A: 6.25

Q: What about the ΔpH/h ([2]; Time 7 h) of the same compound?
A: −0.02 pH/h

Q: And the pH ([2]; Time 8 h)?
A: 6.25

Q: What about the ΔpH/h ([2]; Time 8 h) of the same compound?
A: 0.00 pH/h
